Measured values taken from BigSolDB 2.1.

Cl.NC1CCSC1=O (racemic)
solubility (mole fraction)
Conditions	in 1,4-dioxane	in 2-butanone	in acetone	in acetonitrile	in dichloromethane	in ethanol	in ethyl acetate	in isopropanol	in methanol
283.15 K	–	0.000125	0.000115	4.5e-05	6.4e-05	0.00319	0.000238	0.000521	0.0154
288.15 K	–	–	–	–	0.000114	–	–	–	–
293.15 K	0.0005	0.00021	0.000202	8.7e-05	0.000171	0.00413	0.000281	0.000786	0.0187
298.15 K	–	–	–	–	0.000262	–	–	–	–
303.15 K	0.000691	0.000307	0.00026	0.000135	0.000356	0.00509	0.000342	0.00116	0.0226
308.15 K	0.000783	–	–	–	–	–	–	–	–
313.15 K	0.000872	0.000361	0.000331	0.000175	–	0.00627	0.000385	0.00154	0.0272
323.15 K	0.000995	0.000431	0.000439	0.000212	–	0.00766	0.000458	0.00187	0.0326
